Measured values taken from ChEMBL document CHEMBL1141519, “Pyrogallol and its analogs can antagonize bacterial quorum sensing in Vibrio harveyi” (Bioorg Med Chem Lett, 2008).
Activity calls are given as the source filed them. No cut-off for these calls is given here.

Experiments:
[1] = target: Autoinducer 2-binding periplasmic protein LuxP (Vibrio harveyi, UniProt P54300); assay: Antagonist activity at LuxP receptor in Vibrio harveyi MM32 assessed as inhibition of autoinducer-2-mediated quorum sensing after 3 to 4 hrs; assay type: functional
Vibrio harveyi [2] = assay: Growth inhibition of Vibrio harveyi assessed as time required to double bacterial growth relative to control; assay type: functional, organism-based
Vibrio harveyi [3] = assay: Growth inhibition of Vibrio harveyi assessed as time required to double bacterial growth at 20 uM; assay type: functional

Autoinducer 2-binding periplasmic protein LuxP, sequence (P54300 whole entry): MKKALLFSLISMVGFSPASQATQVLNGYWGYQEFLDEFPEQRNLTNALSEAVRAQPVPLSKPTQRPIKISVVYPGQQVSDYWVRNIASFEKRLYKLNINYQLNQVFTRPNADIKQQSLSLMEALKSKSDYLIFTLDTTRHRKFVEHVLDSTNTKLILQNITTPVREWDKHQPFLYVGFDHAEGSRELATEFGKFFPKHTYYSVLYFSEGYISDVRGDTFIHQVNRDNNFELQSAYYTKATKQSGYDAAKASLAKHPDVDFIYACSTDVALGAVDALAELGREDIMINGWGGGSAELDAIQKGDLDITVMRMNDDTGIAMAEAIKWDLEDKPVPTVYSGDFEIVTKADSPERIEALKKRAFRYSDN

SMILES | IC50 [1] [µM] | Activity (Vibrio harveyi [2]) | Time (Vibrio harveyi [3]) [min]
CC(=O)c1ccc(O)c(O)c1O [GALLACETOPHENONE] | 21 | inactive | 
NCCc1cc(O)c(O)c(O)c1 | 22 |  | 
Oc1cccnc1O |  | inactive | 
O[C@@H]1CCC[C@@H]1O |  | inactive | 
O=C(O)c1cc(O)c(O)c(O)c1 [GALLIC ACID] | 50 | inactive | 
Oc1ccccc1O [CATECHOL] | 59 | inactive | 
Oc1cccc(O)c1O [PYROGALLOL] | 2 |  | 82
O=Cc1cc(O)c(O)c(O)c1 | 12 | inactive | 
O=C(c1ccccc1)c1ccc(O)c(O)c1O | 4 | inactive | 
O=Cc1ccc(O)c(O)c1O | 4 | inactive | 
O=C(O)c1ccc(O)c(O)c1O | 61 | inactive | 
CCOC(=O)c1oc(C(=O)OCC)c(O)c1O |  | inactive | 
O=c1ccc2ccc(O)c(O)c2o1 [DAPHNETIN] | 12 | inactive | 
N#CC(C#N)=Cc1cc(O)c(O)c(O)c1 |  | inactive | 
